Columns and labels:
Assay type in all cases: in vivo
[1] = Modified trypsin hyperalgesic assay (THA); conditions: 1 h; analgesia; pain scores determined 60 minutes after trypsin injection
Experimental: The procedure described by Vinegar et al. in Eur. J] […] The analgesic agents were administered 30 minutes after the administration of trypsin. In addition, a modification of Vinegar's published assay was carried out, comprising the administration of analgesic agent preceding subplantar injectin of trypsin (0.10 ml) of 10% solution of trypsin in pyrogen-free water by 15 minutes. In both THA's, pain scores were determined 60 minutes after trypsin injection. The results of the modification was to increase the sensitivity of the THA to the mild analgesic action of the agents.

rat [2] = assay: Rat hot plate assay; conditions: po, 1 h, administered orally by gavage 60 min prior to testing, protected = no response within 18.3 seconds
Text: The rat hot plate assay incorporated 2 modifications of the mouse hot plate assay originally described by Eddy et al, J. Pharmacol. Exp. Ther. 98, 121-137 (1950). The first modification was enlargement of the diameter of the cylindrical (water filled) copper plate to 25.0 cm to accommodate rats instead of mice.
The second modification was the use of a temperature controller to regulate a 250 watt infrared heat lamp which was activated via a thermistor probe attached to the undersurface of the top of the copper plate. The surface temperature was thus maintained at 45 + 1.0°C (N=28 measurements of the hot plate temperature under experimental conditions). The time in which a rat placed on the hotplate responded by lifting, shaking or licking either or its hind or forelimbs was recorded in tenths of a second.
Only animals responding in pretest within 6-13 seconds were used in the studies. Drugs were suspended in 0.5% sodium carboxymethylcellulose and administered orally, by gavage, in a volume of 1.00 ml/100 g.b wt. 60 min prior to testing. […] The reaction time of 18.3 seconds represented the sum of the mean protest times of 40 untreated rats plus the time of 3 standard deviations of the mean.ED50's and their standard errors were estimated from a graph of the dose-response curves using the method of Miller and Tainter (Proc.Soc.Exp.Biol.Med. 57, 261-262 (1944). Following this procedure the analgesic activity of the compounds of formula (I) was compared to that of standard analgesic drugs.

rat [3] = assay: Carrageenin pleurisy assay (CPA), acute anti-inflammatory activity; conditions: dose required to reduce the 3 hour exudate volume by 50%
Experimental: Following the procedure described by Vinegar et al. in Proc.Soc.Exp.Biol.Med. 151, 556, (1976), the actue anti-inflammatory activityof compounds of formula (I) was compared with that of known anti-inflammatory drugs in the rat. The average 3 hour exudate volume for each drug treated group was determined and the % inhibition relative to solvent-fed control animals calculated, the ED50 being the dose required to reduce the 3 hour exudate volume by 50%.

Compound | ED50 [1] [mg/kg] | ED50 (rat [2]) [mg/kg] | ED50 (rat [3]) [mg/kg]
O=C(O)CCCNc1ccc2c(c1)OCO2 [Example 5, 4-(1,3-benzodioxol-5-yl)amino butyric acid] | 60 | 120 | 42
O=C(O)COc1ccccc1N1CCCC1=O [Example 37, 2-(2-oxy-1-pyrrolidinyl)phenoxyacetic acid] | – | – | 50
Cc1cccnc1N1CCCC1=O [Example 24, 1-(3-methyl-2-pyridyl)-pyrrolidin-2-one] | – | – | 29
C=CCOc1ccccc1N1CCCC1=O [Example 28, 1-(2-allyloxyphenyl)-pyrrolidin-2-one] | – | 120 | 62
C[C@@H]1CN(c2ccc3c(c2)OCO3)C(=O)[C@H]1C (relative stereo) [Example 4, trans-1-(1,3-benzodioxol-5-yl)-3,4-dimethyl-pyrrolidin-2-one] | 46 | – | 75
CC1CCN(c2ccc3c(c2)OCO3)C1=O (stereo not shown) [Example 26, 1-(1,3-benzodioxol-5-yl)-3-methyl-pyrrolidin-2-one] | – | – | 39
COc1ccc(OC)c(N2CCCC2=O)c1 [Example 6, 1-(2,5-dimethoxyphenyl)-pyrrolidin-2-one] | – | – | 80
C=CCOc1ccc(N2CCCC2=O)cc1 [Example 2, 1-(4-allyloxyphenyl)-pyrrolidin-2-one] | – | – | 57
C#CCOc1ccccc1N1CCCC1=O [Example 27, 1-(2-(propyl-yn-yloxy)phenyl)-pyrrolidin-2-one] | 40 | – | 35
CC1CC(=O)N(c2ccc3c(c2)OCO3)C1 (stereo not shown) [Example 1, 1-(1,3-benzodioxol-5-yl)-4-melhyl-pyrrolidin-2-one] | 80 | 120 | 96
COc1cc(OC)cc(N2CCCC2=O)c1 [Example 10, 1-(3,5-dimethoxyphenyl)-pyrrolidin-2-one] | – | – | 95
O=C1CCCN1c1ccccn1 [Example 21, 1-(2-pyridyl)-pyrrolidin-2-one] | – | – | 41
CCc1cccc(N2CCCC2=O)c1 [Example 20, 1-(3-ethylphenyl)-pyrrolidin-2-one] | – | – | 78
C#CC(C)Oc1ccccc1N1CCCC1=O (stereo not shown) [Example 31, 1-(2-(1-methyl-prop-2-yn-yl)oxyphenyl)-pyrrolidin-2-one] | – | – | 39
O=C1CCCN1c1ccc2[nH]ncc2c1 [Example 7, 1-(1H-indazol-5-yl)-pyrrolidin-2-one] | 45 | 30 | 34
CCOc1ccc(N2CCCC2=O)cc1OCC [Example 18, 1-(3,4-diethoxyphenyl)-pyrrolidin-2-one] | – | – | 19

Source: patent publication EP0106988A1, “Pharmacologically active lactam derivatives” (THE WELLCOME FOUNDATION LIMITED, priority 1982, dated 1984)
